Results taken from patent US20230181674A1, “ALLERGEN PROTECTION AGAINST URUSHIOLS” (BEIERSDORF AG, priority 2020, published 2023).

Test: direct peptide reactivity assay (DPRA), in-chemico, unbound peptide detected with Ellman's reagent
Details: 24 h reaction; allergen 5 mM, peptide 0.5 mM; absorbance at 415 nm with DTNB; urushiol structures I-V; n = 3; FIG. 2
Protocol: The absorbance is plotted on the y-axis. The peptide-allergen reactions were realized according to a direct peptide reactivity assay. The test is referred to as the in-chemico method, that is to say no cells are used, but a chemical reaction is carried out.
The direct peptide reaction assay (DPRA) is an OECD-validated test method.
The native, still-unbound peptide is detected by reaction with Ellman’s reagent and corresponding absorbance measurement. The direct peptide reactivity assay (DPRA) is a chemical method for predicting epidermal protein binding. DPRA uses for example HPLC to measure the depletion of peptides in solution after exposure to test chemicals.
RFAACAA was selected as an example of a peptide of the invention.
In the DPRA method, the absorbance at 415 nm is determined as the measured variable.
The allergen concentration is in the investigations carried out a standard 5 mM and thus 10 times the concentration of the peptide used (0.5 mM).
The reaction courses shown were determined colorimetrically through the reaction of the peptide with Ellmann’s reagent in a photometer. In this reaction, DTNB ((5,5′-dithiobis-2-nitrobenzoic acid, Ellmann’s reagent) is cleaved and attached to the SH residue of the amino acid cysteine of the peptides of the invention (RFAACAA).
The SH radical is at the same time the reactive binding site of the peptide with the allergens. […]

Row | Substance | reactivity of peptides with urushiol allergens (fall in peptide, protective activity)
1 | acetyl-arginine-phenylalanine-alanine-alanine-cysteine-alanine-alanine [Ac-RFAACAA] | very high reactivity
2 | RFAACAA [Arg Phe Ala Ala Cys Ala Ala] | very high reactivity
